US20250282761A1, “SALT AND CRYSTAL FORMS OF AN EPIDERMAL GROWTH FACTOR RECEPTOR INHIBITOR” (Blueprint Medicines Corporation, priority 2022, published 2025)
Counter-ions that a name gives are not always drawn.

Assay: Pharmacokinetics following oral (PO) administration to male beagle dogs
Assay type: in vivo
Conditions: single 30 mg/kg PO (free base equivalent)
Description: Male beagle dogs (3 in each treatment group) were administered orally 30 mg/kg of Compound (I) free base or mesylate salt of Compound (I) in a dose equivalent to 30 mg/kg of free base. The free base and the mesylate salt were suspended/dissolved in an appropriate volume of vehicle solution containing 0.5% hydroxypropyl methylcellulose (w/v) with 0.2% Tween 80 (v/v) in deionized water. The PO doses were administered into the stomach via syringe and gavage tube followed by a 5 mL water flush. Dose volumes were adjusted for the weight of the animal on the morning of dose administration. Blood samples were collected at 0, 0.5, 1, 2, 4, 6, 8, 10, 12, and 24 h postdose from an accessible vein with preference to the jugular vein. Blood samples were kept on ice until processing. All blood samples were centrifuged within 1 h of collection at 3200 RPM for 10 min at 5° C. Plasma samples were directly transferred into cluster tubes and stored at −20°±5° C. until shipment. […] Animals were fasted on the evening prior to dosing with food returned at 4 h postdose.

SMILES | appearance of animals at dose administration and blood collection time points | in vivo exposure (plasma concentration, FIG. 7) (0-24 h)
C=CC(=O)Nc1ccc(F)c(Nc2nc(Nc3cnn(C)c3)ncc2-c2ccc(C(F)(F)F)cc2)c1 [Compound (I) free base, N-(4-fluoro-3-((2-((1-methyl-1H-pyrazol-4-yl)amino)-5-(4-(trifluoromethyl)phenyl)pyrimidin-4-yl)amino)phenyl)acrylamide] | appeared normal | 
C=CC(=O)Nc1ccc(F)c(Nc2nc(Nc3cnn(C)c3)ncc2-c2ccc(C(F)(F)F)cc2)c1 [mesylate salt of Compound (I)] |  | higher in vivo exposure
